According to ChEMBL document CHEMBL2062445, “Synthesis and nicotinic receptor activity of chemical space analogues of N-(3R)-1-azabicyclo[2.2.2]oct-3-yl-4-chlorobenzamide (PNU-282,987) and 1,4-diazabicyclo[3.2.2]nonane-4-carboxylic acid 4-bromophenyl ester (SSR180711)” (J Med Chem, 2012):
pIC50: −log10 of the molar value. The source made the active and inactive calls. The calls are words filed in the database; no cut-off is given here.

Legend:
[1] = molecular target: T1, Neuronal acetylcholine receptor subunit alpha-7 (Homo sapiens, UniProt P36544); test: Antagonist activity at human alpha7 nAChR expressed in Xenopus oocyte assessed as inhibition of ACh-induced current at 10 uM after 30 secs by electrophysiological assay; type: functional
T1 sequence (P36544 whole entry): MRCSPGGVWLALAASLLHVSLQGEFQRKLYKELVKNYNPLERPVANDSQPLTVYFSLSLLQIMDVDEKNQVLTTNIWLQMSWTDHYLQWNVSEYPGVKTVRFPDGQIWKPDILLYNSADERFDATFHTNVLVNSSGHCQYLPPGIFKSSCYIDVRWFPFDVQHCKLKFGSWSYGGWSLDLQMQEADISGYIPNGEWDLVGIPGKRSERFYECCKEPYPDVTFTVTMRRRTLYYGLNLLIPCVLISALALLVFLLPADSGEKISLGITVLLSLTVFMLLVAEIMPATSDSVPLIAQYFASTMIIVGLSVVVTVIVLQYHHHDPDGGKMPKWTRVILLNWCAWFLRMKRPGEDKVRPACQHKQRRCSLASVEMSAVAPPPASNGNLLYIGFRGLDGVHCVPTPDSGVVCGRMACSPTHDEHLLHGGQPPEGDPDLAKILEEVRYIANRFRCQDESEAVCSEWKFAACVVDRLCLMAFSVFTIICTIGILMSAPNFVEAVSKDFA

[2] = molecular target: T1, Neuronal acetylcholine receptor subunit alpha-7; test: Agonist activity at human alpha7 nAChR expressed in Xenopus oocyte assessed as stimulation of ACh-induced current at 10 uM after 30 secs by electrophysiological assay; type: functional
[3] = molecular target: T1, Neuronal acetylcholine receptor subunit alpha-7; test: Antagonist activity at human alpha7 nAChR expressed in Xenopus oocyte assessed as inhibition of ACh-induced current after 30 secs by electrophysiological assay; type: functional
[4] = molecular target: T2, Neuronal acetylcholine receptor; alpha3/beta2 (Homo sapiens) (UniProt P17787+P32297); test: Positive allosteric modulation at human recombinant alpha3beta 2 nAChR expressed in Xenopus oocyte assessed as stimulation of ACh-induced current at 10 uM after 30 secs by electrophysiological assay
[5] = molecular target: T2, Neuronal acetylcholine receptor; alpha3/beta2 (Homo sapiens); test: Negative allosteric modulation at human recombinant alpha3beta 2 nAChR expressed in Xenopus oocyte assessed as inhibition of ACh-induced current at 100 uM after 30 secs by electrophysiological assay
[6] = molecular target: T2, Neuronal acetylcholine receptor; alpha3/beta2 (Homo sapiens); test: Positive allosteric modulation at human recombinant alpha3beta 2 nAChR expressed in Xenopus oocyte assessed as inhibition of ACh-induced current at 100 uM after 30 secs by electrophysiological assay
[7] = molecular target: T1, Neuronal acetylcholine receptor subunit alpha-7; test: Partial agonist activity at human alpha7 nAChR expressed in Xenopus oocyte assessed as stimulation of ACh-induced current after 30 secs by electrophysiological assay; type: functional

Row | Structure (SMILES) | inhibition [1] | Activity [2] | further results
1 | O=C(Oc1ccc(Br)cc1)N1CCCN2CCC[C@H]2C1 | 62% | – | –
2 | CCCC#CCN1CC[C@H](NC(=O)c2ccc3ncsc3c2)C1 | 81% | inactive | –
3 | O=C(NCC1CC2CCN1CC2)c1ccccc1 (racemic) | 53% | – | –
4 | C[C@H]1CN2CCCC[C@@H]2CN1C(=O)c1ccc2c(c1)OCCO2 | 75% | – | –
5 | CCC#CCN1CCC[C@@H]1CNC(=O)c1ccc2ncsc2c1 | 13% | – | pIC50 [3]: 4.40
6 | O=C(c1ccc2c(c1)OCCO2)N1CCCN2CCC[C@H]2C1 | 56% | – | –
7 | O=C(NCC12CCCN1CCC2)c1ccccc1Cl | 35% | – | –
8 | CN1CC2CCC1C(CNC(=O)c1ccccc1)C2 (racemic; form 1) | 68% | – | –
9 | O=C(c1ccc2c(c1)OCCO2)N1CCCN2CCC[C@@H]2C1 | 40% | inactive | –
10 | CN1CC2CCC1C(CNC(=O)c1ccc(Br)cc1)C2 (racemic; form 2) | 66% | inactive | –
11 | CCN1CC[C@H](NC(=O)c2ccc3ncsc3c2)C1 | 139% | inactive | –
12 | O=C(NCC12CCCN1CCC2)C1COc2ccccc2O1 (stereo not drawn) | 29% | – | –
13 | O=C(c1ccc(Cl)cc1)N1CCCN2CCC[C@H]2C1 | 57% | – | –
14 | CN1CC2CCC1C(CNC(=O)c1ccc3c(c1)OCCO3)C2 (racemic; form 2) | 77% | inactive | –
15 | CC(C)N1CCN(C(=O)Oc2ccc(Br)cc2)CC1 | 82% | – | –
16 | O=C(NCC1CC2CCN1CC2)Oc1ccc(Br)cc1 (racemic) | 80% | – | –
17 | O=C(NCC1=CC2CCN1CC2)Oc1ccc(Br)cc1 | 100% | inactive | –
18 | CN1CC2CCC1C(CNC(=O)c1ccc(F)cc1)C2 (racemic; form 1) | 52% | – | –
19 | O=C(NCC1=CC2CCN1CC2)c1ccc(Br)cc1 | 30% | inactive | –
20 | O=C(c1ccc2ncsc2c1)N1CCCN2CCC[C@H]2C1 | 53% | – | –
21 | CN1CC2CCC1C(CNC(=O)c1ccc(Cl)cc1)C2 (racemic; form 2) | 61% | inactive | –

Row | Structure (SMILES) | inhibition [1] | Activity [2] | further results
22 | CC(C)N1C[C@H]2C[C@@H]1CN2C(=O)c1ccc(Cl)cc1 | 69% | inactive | –
23 | O=C(N[C@H]1CCN(C2CCCCC2)C1)c1ccc2ncsc2c1 | 56% | inactive | –
24 | O=C(NCC12CCCN1CCC2)c1ccc2ncsc2c1 | 34% | – | –
25 | C[C@H]1CN2CCCC[C@@H]2CN1C(=O)c1ccc2ncsc2c1 (racemic) | 61% | – | –
26 | CN(C)CCNC(=O)C1COc2ccccc2O1 (stereo not drawn) | 52% | – | –
27 | O=C(NCC12CCCN1CCC2)c1ccc(Cl)cc1 | 32% | – | Activity [4]: Active; Activity [5]: Active
28 | CCC#CCN1CCC[C@@H]1CNC(=O)C1COc2ccccc2O1 (stereo partly drawn) | 74% | – | –
29 | CC(C)N1CCN(C(=O)C2COc3ccccc3O2)CC1 (stereo not drawn) | 90% | – | –
30 | CN1CC2CCC1C(CNC(=O)c1ccc(F)cc1)C2 (racemic; form 2) | 55% | inactive | –
31 | Cc1ccc(C(=O)NCC23CCCN2CCC3)cc1 | 25% | – | –
32 | O=C(NCC1=CC2CCN1CC2)c1ccc(F)cc1 | 36% | inactive | –
33 | CC1CCCC1N1CC[C@H](NC(=O)c2ccc3ncsc3c2)C1 (stereo partly drawn) | 20% | – | pIC50 [3]: 5.30
34 | C[C@H]1CN2CCCC[C@@H]2CN1C(=O)c1ccc(Cl)cc1 | 65% | – | –
35 | CC1CCCC1N1CC[C@H](NC(=O)c2ccc(Cl)cc2)C1 (stereo partly drawn) | 33% | – | –
36 | CC1CCCC1N1CCC(NC(=O)c2ccc3ncsc3c2)CC1 (stereo not drawn) | 65% | inactive | –
37 | O=C(NCC12CCCN1CCC2)c1cccc(Cl)c1 | 32% | – | –
38 | CC(C)N1CCCN(C(=O)c2ccc3c(c2)OCCO3)CC1 | – | inactive | –
39 | CC(C)N1CCCCN(C(=O)c2ccc3ncsc3c2)CC1 | 40% | – | –
40 | CN1CC2CCC1C(CNC(=O)c1ccc(Br)cc1)C2 (racemic; form 1) | 71% | – | –
41 | CCN1CCC[C@@H]1CNC(=O)Oc1ccc(Br)cc1 | 53% | inactive | –
42 | CN1CC2CCC1C(CNC(=O)c1ccccc1)C2 (racemic; form 2) | 54% | inactive | –

Row | Structure (SMILES) | inhibition [1] | Activity [2] | further results
43 | O=C(Oc1ccc(Br)cc1)N1CCCN2CCC[C@@H]2C1 | 36% | inactive | –
44 | CCN1CCC[C@@H]1CNC(=O)c1ccc2ncsc2c1 | 53% | inactive | –
45 | CN1CC2CCC1C(CNC(=O)c1ccc(Cl)cc1)C2 (racemic; form 1) | 60% | – | –
46 | CC(C)N1CCC[C@@H]1CNC(=O)Oc1ccc(Br)cc1 | 27% | inactive | –
47 | O=C(C1COc2ccccc2O1)N1CCCN2CCC[C@H]2C1 (stereo partly drawn) | 54% | – | –
48 | O=C(NCC1CC2CCN1CC2)c1ccc(F)cc1 (racemic) | 84% | – | Activity [4]: Active; Activity [6]: Active
49 | O=C(NCC12CCCN1CCC2)c1ccc2c(c1)OCCO2 | 33% | – | –
50 | CN1CC2CCC1C(CNC(=O)c1ccc3c(c1)OCCO3)C2 (racemic; form 1) | 81% | – | –
51 | CC(C)N1CCN(C(=O)c2ccc3ncsc3c2)CC1 | 85% | – | –
52 | O=C(NCC1=CC2CCN1CC2)c1ccc2c(c1)OCCO2 | 50% | inactive | –
53 | CCCN1CCC[C@@H]1CNC(=O)c1ccc(F)cc1 | 22% | inactive | –
54 | CC(C)N1CCN(C(=O)c2ccc3c(c2)OCCO3)CC1 | 81% | – | –
55 | O=C(c1ccc(Br)cc1)N1CCCN2CCC[C@@H]2C1 | 40% | inactive | –
56 | O=C(N[C@H]1CCN(Cc2ccccc2)C1)c1ccc2ncsc2c1 | 94% | inactive | –
57 | O=C(NCC12CCCN1CCC2)c1ccc(Br)cc1 | 9% | – | –
58 | CCC#CCN1CCC[C@@H]1CNC(=O)Oc1ccc(Br)cc1 | 72% | – | –
59 | CCN1CCC[C@@H]1CNC(=O)c1ccc(Cl)cc1 | 42% | inactive | –
60 | CCC#CCN1CCC[C@H]1CNC(=O)c1ccc2ncsc2c1 | 88% | inactive | pIC50 [3]: 4.35
61 | CCC#CCN1CCC[C@H]1COC(=O)c1ccc2ncsc2c1 | 60% | inactive | –
62 | CN(C)CCNC(=O)c1ccc2ncsc2c1 | 94% | – | –
63 | CC(C)N1CCN(C(=O)c2ccc(Cl)cc2)CC1 | 84% | – | –

Row | Structure (SMILES) | inhibition [1] | Activity [2] | further results
64 | O=C(c1ccc(F)cc1)N1CCCN2CCC[C@@H]2C1 | 58% | inactive | –
65 | CC(C)N1CCCCN(C(=O)C2COc3ccccc3O2)CC1 (stereo not drawn) | 37% | – | –
66 | CC(C)N1CCCCN(C(=O)c2ccc(Cl)cc2)CC1 | 35% | – | –
67 | CCC#CCN1CCC[C@@H]1CNC(=O)c1ccc2c(c1)OCCO2 | 96% | – | –
68 | O=C(NCC1=CC2CCN1CC2)c1ccc(Cl)cc1 | 50% | inactive | –
69 | O=C(N[C@@H]1CCN(Cc2ccccc2)C1)c1ccc2ncsc2c1 | 59% | – | –
70 | O=C(NCC12CCCN1CCC2)c1ccccc1 | 26% | – | Activity [4]: Active; Activity [5]: Active
71 | O=C(Oc1ccc(Br)cc1)N1CCN2CCC1CC2 | – | – | Activity [7]: Active
72 | CN(C)CCNC(=O)c1ccc(Cl)cc1 | 68% | – | –
73 | O=C(NC[C@H]1CCCN1C1CCCCC1)c1ccc2ncsc2c1 | 71% | inactive | –
74 | CN1CCC2CC1CN(C(=O)Oc1ccc(Br)cc1)C2 (racemic) | – | – | Activity [4]: Active; Activity [5]: Active
75 | O=C(N[C@@H]1CCCC[C@H]1N1CCCCC1)Oc1ccc(Br)cc1 (racemic) | 34% | – | pIC50 [3]: 5.00
76 | O=C(c1ccccc1)N1CCCN2CCC[C@@H]2C1 | 55% | inactive | –
77 | O=C(NCC1CC2CCN1CC2)c1ccc2c(c1)OCCO2 (racemic) | 79% | – | –
78 | CC(C)N1CCCCN(C(=O)c2ccc3c(c2)OCCO3)CC1 | 25% | – | pIC50 [3]: 5.16
79 | CN(C)CCNC(=O)c1ccc2c(c1)OCCO2 | 87% | – | –
80 | CCC#CCN1CCC[C@@H]1CNC(=O)c1ccc(Cl)cc1 | 21% | – | –
81 | O=C(NCC1=CC2CCN1CC2)c1ccccc1 | 35% | inactive | –
